pIC50, pKi: −log10 of the molar value.

Common to all, as to assay type: biochemical
Assay [1] addresses CDK1/cyclin B (Homo sapiens, UniProt P06493). The assay can be described thus: Kinase assay CDK1/cyclin B (radioactive phosphate incorporation). As to conditions: Ki calculated (Cheng-Prusoff) from experimentally determined IC50 and Km,ATP; read-out: Kinase Inhibition Ki CDK1 - cyclin B. Here is the method:
(§1) The compounds from the examples above were investigated for their ability to inhibit the enzymatic activity of various protein kinases. This was achieved by measurement of incorporation of radioactive phosphate from ATP into appropriate polypeptide substrates. Recombinant protein kinases and kinase complexes were produced or obtained commercially. Assays were performed using 96-well plates and appropriate assay buffers (typically 25 mM β-glycerophosphate, 20 mM MOPS, 5 mM EGTA, 1 mM DTT, 1 mM […], pH 7.4), into which were added 2-4 μg of active enzyme with appropriate substrates. […] Reactions were stopped on ice, followed by filtration through p81 filterplates or GF/C filterplates (Whatman Polyfiltronics, Kent, UK). After washing 3 times with 75 mM aq orthophosphoric acid, plates were dried, scintillant added and incorporated radioactivity measured in a scintillation counter (TopCount, Packard Instruments, Pangbourne, Berks, UK). Compounds for kinase assay were made up as 10 mM stocks in DMSO and diluted into 10% DMSO in assay buffer.

The target in assay [2] is CDK2/cyclin E (Homo sapiens, UniProt P24941). In words: Kinase assay CDK2/cyclin E. As to conditions: Ki calculated (Cheng-Prusoff) from experimentally determined IC50 and Km,ATP; read-out: Kinase Inhibition Ki CDK2 - cyclin E. Here is the method:
as §1

The target in assay [3] is CDK2/cyclin A (Homo sapiens, UniProt P24941). The assay can be described thus: Kinase assay CDK2/cyclin A. As to conditions: Ki calculated (Cheng-Prusoff) from experimentally determined IC50 and Km,ATP; read-out: Kinase Inhibition Ki CDK2 - cyclin A. As for the experimental part: as §1
The target of assay [4] is CDK4/cyclin D1 (Homo sapiens, UniProt P11802). The assay can be described thus: Kinase assay CDK4/cyclin D1. As to conditions: Ki calculated (Cheng-Prusoff) from experimentally determined IC50 and Km,ATP; read-out: Kinase Inhibition Ki CDK4 - cyclin D1. As for the experimental part:
(§2) The compounds from the examples above were investigated for their ability to inhibit the enzymatic activity of various protein kinases. This was achieved by measurement of incorporation of radioactive phosphate from ATP into appropriate polypeptide substrates. Recombinant protein kinases and kinase complexes were produced or obtained commercially. Assays were performed using 96-well plates and appropriate assay buffers (typically 25 mM β-glycerophosphate, 20 mM MOPS, 5 mM EGTA, 1 mM DTT, 1 mM […], pH 7.4), into which were added 2-4 μg of active enzyme with appropriate substrates. The reactions were initiated by addition of Mg/ATP mix (15 mM MgCl2+100 μM ATP with 30-50 kBq per well of [γ-^32P]-ATP) and mixtures incubated as required at 30° C. Reactions were stopped on ice, followed by filtration through p81 filterplates or GF/C filterplates (Whatman Polyfiltronics, Kent, UK). After washing 3 times with 75 mM aq orthophosphoric acid, plates were dried, scintillant added and incorporated radioactivity measured in a scintillation counter (TopCount, Packard Instruments, Pangbourne, Berks, UK). Compounds for kinase assay were made up as 10 mM stocks in DMSO and diluted into 10% DMSO in assay buffer.

For assay [5], the target named is CDK7/cyclin H (Homo sapiens, UniProt P50613). The assay can be described thus: Kinase assay CDK7/cyclin H. As to conditions: Ki calculated (Cheng-Prusoff) from experimentally determined IC50 and Km,ATP; read-out: Kinase Inhibition Ki CDK7 - cyclin H. As for the experimental part:
as §2

Assay [6] addresses CDK9/cyclin T1 (Homo sapiens, UniProt P50750). In words: Kinase assay CDK9/cyclin T1. As to conditions: Ki calculated (Cheng-Prusoff) from experimentally determined IC50 and Km,ATP; read-out: Kinase Inhibition Ki CDK9 - cyclin T1. Here is the method:
as §2

Assay [7] addresses T1, GSK3β (Homo sapiens, UniProt P49841).
T1 construct: purchased New England Biolabs
The assay can be described thus: GSK3β in vitro kinase assay. As to conditions: recombinant human GSK3β, 100 μM ATP. Here is the method: Both isoforms of GSK3 (α and β) are involved in the regulation of glycogen synthase activity—key enzyme in the glycogen metabolism.
A 10-point titration was set up to determine the IC50 values of selected example compounds against GSK3β. Assays were performed using 96-well microtiter plates with a final volume of 25 μL per well. Each assay contained 1.5 units of GSK3β(New England Biolabs), 200 μM CREB phosphopeptide ([…]pSYR, Alta Biosciences), 20 mM Tris HCl pH7.5, 5 mM DTT, 15 mM MgCl2 supplemented with 100 μM ATP and 0.5 μCi of [γ-^32P] ATP plus or minus inhibitor in 2% DMSO. Assays were carried out for 30 minutes at 30° C. before stopping the reaction by the addition of an equal volume of 75 mM aqueous phosphoric acid. Samples were then spotted onto a p81 filterplate (Whatman) and a vacuum was applied. Wells were washed 3 times with 200 μL of dilute aqueous phosphoric acid before the addition of 50 μL Microscint 40 per well. Incorporation of radioactivity was determined on a Topcount microplate scintillation counter (Packard).

Sequence of CDK4/cyclin D1 (P11802 whole entry, species assumed): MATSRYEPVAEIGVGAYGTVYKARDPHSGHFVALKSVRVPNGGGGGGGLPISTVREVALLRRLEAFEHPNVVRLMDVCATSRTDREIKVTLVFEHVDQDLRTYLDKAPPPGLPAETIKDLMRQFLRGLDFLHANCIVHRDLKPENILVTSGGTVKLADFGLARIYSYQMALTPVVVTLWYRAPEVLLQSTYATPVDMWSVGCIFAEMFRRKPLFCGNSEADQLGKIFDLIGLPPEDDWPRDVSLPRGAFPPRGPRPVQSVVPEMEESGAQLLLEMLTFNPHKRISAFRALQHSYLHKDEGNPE
Sequence of CDK4/cyclin D1 (P24385 whole entry partner, species assumed): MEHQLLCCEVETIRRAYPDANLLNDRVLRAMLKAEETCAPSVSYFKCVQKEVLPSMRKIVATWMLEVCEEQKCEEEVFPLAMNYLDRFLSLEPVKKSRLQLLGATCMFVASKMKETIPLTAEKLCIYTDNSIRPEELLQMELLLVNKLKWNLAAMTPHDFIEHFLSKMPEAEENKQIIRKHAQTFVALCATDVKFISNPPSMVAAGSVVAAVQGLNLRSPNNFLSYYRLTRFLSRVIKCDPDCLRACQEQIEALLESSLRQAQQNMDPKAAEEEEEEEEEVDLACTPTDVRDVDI
Sequence of CDK1/cyclin B (P06493 whole entry, species assumed): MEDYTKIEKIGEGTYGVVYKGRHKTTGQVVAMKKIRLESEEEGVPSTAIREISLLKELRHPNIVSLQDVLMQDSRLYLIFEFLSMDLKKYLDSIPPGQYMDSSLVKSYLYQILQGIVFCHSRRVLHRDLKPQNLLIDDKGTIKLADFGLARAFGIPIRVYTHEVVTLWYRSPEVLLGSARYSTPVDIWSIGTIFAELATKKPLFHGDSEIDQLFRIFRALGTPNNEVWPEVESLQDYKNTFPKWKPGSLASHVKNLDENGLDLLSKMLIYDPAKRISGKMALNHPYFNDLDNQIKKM
Sequence of CDK1/cyclin B (P14635 whole entry partner, species assumed): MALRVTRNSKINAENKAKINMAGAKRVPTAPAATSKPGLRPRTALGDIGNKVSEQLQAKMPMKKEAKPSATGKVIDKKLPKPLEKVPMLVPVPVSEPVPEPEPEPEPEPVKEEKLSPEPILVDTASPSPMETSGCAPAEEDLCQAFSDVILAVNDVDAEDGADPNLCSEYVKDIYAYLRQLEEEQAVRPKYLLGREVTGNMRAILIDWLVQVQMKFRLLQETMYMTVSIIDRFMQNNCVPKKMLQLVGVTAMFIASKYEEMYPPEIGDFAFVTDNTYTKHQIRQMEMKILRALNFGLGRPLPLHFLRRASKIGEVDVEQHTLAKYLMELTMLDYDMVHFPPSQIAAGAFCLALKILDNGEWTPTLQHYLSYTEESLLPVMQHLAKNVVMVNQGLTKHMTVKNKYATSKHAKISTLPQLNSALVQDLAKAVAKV
T1 sequence (P49841 whole entry): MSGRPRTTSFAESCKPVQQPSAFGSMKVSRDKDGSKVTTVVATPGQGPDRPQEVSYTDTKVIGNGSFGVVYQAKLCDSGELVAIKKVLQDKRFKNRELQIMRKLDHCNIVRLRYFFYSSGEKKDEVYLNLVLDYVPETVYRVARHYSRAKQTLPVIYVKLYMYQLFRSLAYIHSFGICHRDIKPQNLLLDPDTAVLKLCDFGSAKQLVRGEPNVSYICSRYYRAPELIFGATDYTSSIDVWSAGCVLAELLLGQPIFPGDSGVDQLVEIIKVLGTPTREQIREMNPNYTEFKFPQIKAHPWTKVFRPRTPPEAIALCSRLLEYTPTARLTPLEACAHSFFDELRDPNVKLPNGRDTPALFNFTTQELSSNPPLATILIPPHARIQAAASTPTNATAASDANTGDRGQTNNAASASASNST
Sequence of CDK7/cyclin H (P50613 whole entry, species assumed): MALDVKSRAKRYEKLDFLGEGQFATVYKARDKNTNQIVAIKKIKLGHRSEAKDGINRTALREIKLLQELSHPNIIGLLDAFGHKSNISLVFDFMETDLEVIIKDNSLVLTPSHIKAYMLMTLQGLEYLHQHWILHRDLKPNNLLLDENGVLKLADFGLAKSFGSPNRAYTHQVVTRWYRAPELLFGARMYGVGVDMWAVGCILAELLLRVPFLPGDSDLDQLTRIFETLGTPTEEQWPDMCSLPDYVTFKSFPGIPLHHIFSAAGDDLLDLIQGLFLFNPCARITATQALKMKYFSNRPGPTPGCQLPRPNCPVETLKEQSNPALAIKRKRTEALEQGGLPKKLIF
Sequence of CDK7/cyclin H (P51946 whole entry partner, species assumed): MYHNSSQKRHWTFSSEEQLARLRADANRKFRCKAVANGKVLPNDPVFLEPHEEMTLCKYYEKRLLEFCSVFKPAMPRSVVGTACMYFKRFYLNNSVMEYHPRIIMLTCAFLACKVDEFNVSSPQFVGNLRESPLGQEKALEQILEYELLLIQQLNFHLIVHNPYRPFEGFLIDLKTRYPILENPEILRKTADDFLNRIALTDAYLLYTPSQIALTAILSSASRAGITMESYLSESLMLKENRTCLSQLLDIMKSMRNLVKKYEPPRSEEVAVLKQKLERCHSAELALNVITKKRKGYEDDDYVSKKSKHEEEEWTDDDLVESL
Sequence of CDK9/cyclin T1 (P50750 whole entry, species assumed): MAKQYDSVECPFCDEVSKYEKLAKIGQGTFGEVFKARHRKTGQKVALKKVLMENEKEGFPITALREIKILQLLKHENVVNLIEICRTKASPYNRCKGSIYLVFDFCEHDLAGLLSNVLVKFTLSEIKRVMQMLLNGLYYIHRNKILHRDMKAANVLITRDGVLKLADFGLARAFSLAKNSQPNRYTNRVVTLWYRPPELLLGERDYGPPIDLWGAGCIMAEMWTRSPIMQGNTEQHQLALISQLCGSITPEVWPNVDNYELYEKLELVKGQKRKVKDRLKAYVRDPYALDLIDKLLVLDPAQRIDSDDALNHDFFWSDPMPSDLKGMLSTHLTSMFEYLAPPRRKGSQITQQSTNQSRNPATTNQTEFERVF
Sequence of CDK9/cyclin T1 (O60563 whole entry partner, species assumed): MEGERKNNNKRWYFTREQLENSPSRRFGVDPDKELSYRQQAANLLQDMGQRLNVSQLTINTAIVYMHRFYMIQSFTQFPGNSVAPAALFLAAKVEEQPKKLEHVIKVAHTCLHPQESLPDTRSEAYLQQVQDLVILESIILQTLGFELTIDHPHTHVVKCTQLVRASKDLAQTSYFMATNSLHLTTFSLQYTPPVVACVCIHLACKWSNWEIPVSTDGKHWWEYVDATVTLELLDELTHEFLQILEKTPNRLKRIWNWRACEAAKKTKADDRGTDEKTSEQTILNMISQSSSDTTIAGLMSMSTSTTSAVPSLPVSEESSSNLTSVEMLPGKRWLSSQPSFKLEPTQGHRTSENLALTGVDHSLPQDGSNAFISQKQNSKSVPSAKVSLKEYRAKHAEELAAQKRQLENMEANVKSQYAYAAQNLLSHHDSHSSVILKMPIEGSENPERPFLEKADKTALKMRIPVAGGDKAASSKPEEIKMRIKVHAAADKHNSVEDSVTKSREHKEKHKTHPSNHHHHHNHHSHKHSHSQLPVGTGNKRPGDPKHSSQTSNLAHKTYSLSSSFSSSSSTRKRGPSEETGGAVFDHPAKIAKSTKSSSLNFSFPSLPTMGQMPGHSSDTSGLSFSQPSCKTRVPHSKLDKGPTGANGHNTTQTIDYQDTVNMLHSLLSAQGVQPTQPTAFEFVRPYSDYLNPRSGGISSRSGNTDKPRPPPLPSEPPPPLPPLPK

By pKi is commonly meant −log10 of the Ki, conventionally taken in molar units. On to `CCn1c(C)c(-c2ccnc(Nc3ccc(N(C)C)cc3)n2)sc1=O` [Compound 26, 5-[2-(4-Dimethylamino-phenylamino)-pyrimidin-4-yl]-3-ethyl-4-methyl-3H-thiazol-2-one], for which the pKi in assay [1] was 5.15; in assay [2] it was 6.54; in assay [3], 6.82; in assay [4] it was 6.55; in assay [5], 6.66; in assay [6], 6.16.
What is called pIC50 is −log10 of the IC50, conventionally taken in molar units. Take `CCn1c(C)c(-c2ccnc(Nc3cccc(O)c3)n2)sc1=O` [Compound 43, 3-Ethyl-5-[2-(3-hydroxy-phenylamino)-pyrimidin-4-yl]-4-methyl-3H-thiazol-2-one]: the pKi in assay [2] was 8.70; in assay [4] it was 6.89; in assay [5], 7.72. For the same molecule, the negative-log IC50 (pIC50) in assay [7] is 7.38.
On to `CCn1c(C)c(-c2ccnc(Nc3ccc(S(=O)(=O)O)cc3)n2)sc1=O` [Compound 53, 4-[4-(3-Ethyl-4-methyl-2-oxo-2,3-dihydro-thiazol-5-yl)-pyrimidin-2-ylamino]-benzenesulfonic acid], for which the negative logarithm of the Ki (pKi) in assay [2] is 6.74; in assay [3], 6.23. Further, the pIC50 in assay [7] is 7.36.
In the case of `Cc1c(-c2ccnc(Nc3ccc(N(C)C)cc3)n2)sc(=O)n1C` [Compound 8, 5-[2-(4-Dimethylamino-phenylamino)-pyrimidin-4-yl]-3,4-dimethyl-3H-thiazol-2-one], the pKi was 6.12 in assay [1]; 6.12 in assay [2]; 6.70 in assay [3]; 6.28 in assay [4]; 6.07 in assay [5]; 7.39 in assay [6].
On to `CC(=O)NCc1cccc(Nc2nccc(-c3sc(=O)n(C)c3C)n2)c1` [Compound 42, N-{3-[4-(3,4-Dimethyl-2-oxo-2,3-dihydro-thiazol-5-yl)-pyrimidin-2-ylamino]-benzyl}-acetamide], for which the pKi in assay [1] was 6.24; in assay [2] it was 7.47; in assay [3], 6.66; in assay [4], 6.11; in assay [5], 6.42; in assay [6], 7.72. In assay [7], the negative logarithm of the IC50 (pIC50) was 7.41.
As to `CC(=O)N1CCN(c2ccc(Nc3nccc(-c4sc(=O)n(C)c4C)n3)cc2)CC1` [Compound 17, 5-{2-[4-(4-Acetyl-piperazin-1-yl)-phenylamino]-pyrimidin-4-yl}-3,4-dimethyl-3H-thiazol-2-one], the pKi was 5.16 in assay [1]; 6.59 in assay [2]; 6.74 in assay [3]; 6.72 in assay [4]; 6.29 in assay [5]; 7.11 in assay [6].
On to `Cc1c(-c2ccnc(Nc3ccc(N4CCN(C)CC4)cc3)n2)sc(=O)n1C` [Compound 13, 3,4-Dimethyl-5-{2-[4-(4-methyl-piperazin-1-yl)-phenylamino]-pyrimidin-4-yl}-3H-thiazol-2-one], for which the pKi was 5.82 in assay [1]; 6.28 in assay [2]; 6.64 in assay [3]; 6.57 in assay [4]; 6.77 in assay [5]; 7.03 in assay [6].
Take `CCn1c(C)c(-c2ccnc(Nc3cccc(S(=O)(=O)O)c3)n2)sc1=O` [Compound 54, 3-[4-(3-Ethyl-4-methyl-2-oxo-2,3-dihydro-thiazol-5-yl)-pyrimidin-2-ylamino]-benzenesulfonic acid]: the pIC50 in assay [7] is 6.80.
`Cc1c(-c2ccnc(Nc3cccc([N+](=O)[O-])c3)n2)sc(=O)n1CCC(C)C` [Compound 30, 4-Methyl-3-(3-methyl-butyl)-5-[2-(3-nitro-phenylamino)-pyrimidin-4-yl]-3H-thiazol-2-one]: the pKi in assay [1] was 6.17; in assay [2], 6.54; in assay [3], 6.25; in assay [4], 4.68; in assay [5], 7.51; in assay [6], 6.72.
Turning to `Cc1ccc(Nc2nccc(-c3sc(=O)n(C)c3C)n2)cc1N` [Compound 39, 5-[2-(3-Amino-4-methyl-phenylamino)-pyrimidin-4-yl]-3,4-dimethyl-3H-thiazol-2-one], the pKi in assay [1] was 7.19; in assay [2], 7.01; in assay [3], 8.07; in assay [4], 6.82; in assay [5], 6.22; in assay [6], 7.85.
Regarding `Cc1ccc(Nc2nccc(-c3sc(=O)[nH]c3C)n2)cc1[N+](=O)[O-]` [Compound 41, 4-Methyl-5-[2-(4-methyl-3-nitro-phenylamino)-pyrimidin-4-yl]-3H-thiazol-2-one], the pKi was 7.31 in assay [1]; 7.92 in assay [2]; 7.64 in assay [3]; 6.89 in assay [4]; 6.54 in assay [5]; 8.05 in assay [6].
On to `CCn1c(C)c(-c2ccnc(Nc3ccc(Cl)c(C(F)(F)F)c3)n2)sc1=O` [Compound 48, 5-[2-(4-Chloro-3-trifluoromethyl-phenylamino)-pyrimidin-4-yl]-3-ethyl-4-methyl-3H-thiazol-2-one], for which the pKi in assay [6] is 6.64. Further, in assay [7], the pIC50 is 7.21.
Turning to `COc1ccc(Nc2nccc(-c3sc(=O)n(CCC(C)C)c3C)n2)cn1` [Compound 35, 5-[2-(6-Methoxy-pyridin-3-ylamino)-pyrimidin-4-yl]-4-methyl-3-(3-methyl-butyl)-3H-thiazol-2-one], the pKi in assay [1] is 5.59; in assay [2], 6.18; in assay [3] it was 6.72; in assay [4], 5.70; in assay [5], 6.70; in assay [6], 6.31.
Take `CCn1c(C)c(-c2ccnc(Nc3ccc(Cl)c(C)c3)n2)sc1=O` [Compound 51, 5-[2-(4-Chloro-3-methyl-phenylamino)-pyrimidin-4-yl]-3-ethyl-4-methyl-3H-thiazol-2-one]: the pKi is 5.68 in assay [1], 6.57 in assay [2], 6.01 in assay [5] and 6.72 in assay [6]. The pIC50 in assay [7] is 6.27.
`Cc1c(-c2ccnc(Nc3ccc(S(=O)(=O)NCc4ccccc4)cc3)n2)sc(=O)n1C` [Compound 73, N-Benzyl-4-[4-(3,4-dimethyl-2-oxo-2,3-dihydro-thiazol-5-yl)-pyrimidin-2-ylamino]-benzenesulfonamide]: the pKi in assay [1] was 5.96; in assay [2] it was 7.10; in assay [3] it was 6.19; in assay [6], 6.42. Also, the pIC50 in assay [7] is 7.18.
For `Cc1[nH]c(=O)sc1-c1ccnc(Nc2cccc([N+](=O)[O-])c2)n1` [Compound 40, 4-Methyl-5-[2-(3-nitro-phenylamino)-pyrimidin-4-yl]-3H-thiazol-2-one], the pKi was 7.77 in assay [1]; 8.49 in assay [2]; 7.96 in assay [3]; 6.64 in assay [4]; 7.15 in assay [5]; 8.62 in assay [6].

Source of the values: patent publication US7902361B2, “Pyrimidin-4-yl-3, 4-thione compounds and their use in therapy” (Cyclacel Limited, priority 2003, dated 2011).
